Experimental data from patent US10968203B2, “Pyrimidinyl-pyridyloxy-naphthyl compounds and methods of treating IRE1-related diseases and disorders” (Genentech, Inc., priority 2017, dated 2021).
Counter-ions that a name gives are not always drawn.

test system: XBP1s-luc 293 LUC; assay: cellular PD assay, XBP1s-LUC reporter (Example 903); format: cell-based; conditions: Table 1; read-out: XBP1s-luc 293 LUC (IC50)
In short: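 Cellular IRE1α pathway activity was quantified from the luciferase signal of an XBP1-Luc reporter, where the luciferase fusion is in frame and expressed only from the spliced XBP1 transcript.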

| Compound | IC50 [nM] |
| --- | --- |
| CCC1CCC(=O)N1c1cccc2c(Oc3ncccc3-c3ccnc(N[C@H]4CCCNC4)n3)c(C)ccc12 (single isomer, unassigned) [Example 357] | 260 |
| CCCS(=O)(=O)Nc1c(F)ccc2c(Oc3ncccc3-c3ccnc(N[C@@H]4CNCC[C@H]4C)n3)c(C)ccc12 (single isomer, unassigned) [Example 327] | 254 |
| Cc1ccc2c(NS(=O)(=O)Cc3ccccc3CO)cccc2c1Oc1ncccc1-c1ccnc(N[C@H]2CCCNC2)n1 [Example 166, (S)-1-(2-(Hydroxymethyl)phenyl)-N-(6-methyl-5-((3-(2-(piperidin-3-ylamino)pyrimidin-4-yl)pyridin-2-yl)oxy)naphthalen-1-yl)methanesulfonamide] | 118 |
| CC[C@@H]1CCN(c2cccc3c(Oc4ncccc4-c4ccnc(N[C@H]5CCCNC5)n4)c(C)ccc23)C1=O (single isomer, unassigned) [Example 266] | 121 |
| CCCS(=O)(=O)Nc1c(Cl)ccc2c(Oc3ncccc3-c3ccnc(N[C@H]4CCCNC4)n3)c(C)ccc12 [Example 370, (S)—N-(2-Chloro-6-methyl-5-((3-(2-(piperidin-3-ylamino)pyrimidin-4-yl)pyridin-2-yl)oxy)naphthalen-1-yl)propane-1-sulfonamide] | 27.6 |
| Cc1ccc2c(NS(=O)(=O)Cc3ccccc3)cccc2c1Oc1ncccc1-c1ccnc(N[C@H]2CC[C@H](N)CC2)n1 [Example 152, N-(5-((3-(2-(((trans)-4-Aminocyclohexyl)amino)pyrimidin-4-yl)pyridin-2-yl)oxy)-6-methylnaphthalen-1-yl)-1-phenylmethanesulfonamide] | 241 |
| Cc1ccc2c(NC(=O)C3CC3C(C)C)cccc2c1Oc1ncccc1-c1ccnc(N[C@H]2CCCNC2)n1 (single isomer, unassigned) [Example 229] | 454 |
| Cc1ccc2c(NS(=O)(=O)Cc3ccccc3C(F)(F)F)c(F)ccc2c1Oc1ncccc1-c1ccnc(N[C@H]2CCCNC2)n1 [Example 392, (S)—N-(2-Fluoro-6-methyl-5-((3-(2-(piperidin-3-ylamino)pyrimidin-4-yl)pyridin-2-yl)oxy)naphthalen-1-yl)-1-(2-(trifluoromethyl)phenyl)methanesulfonamide] | 6.32 |
| Cc1nc(CNc2cccc3c(Oc4ncccc4-c4ccnc(N[C@H]5CCCNC5)n4)c(C)ccc23)no1 [Example 320, 4-[2-[[2-Methyl-5-[(5-methyl-1,2,4-oxadiazol-3-yl)methylamino]-1-naphthyl]oxy]-3-pyridyl]-N-[(3S)-3-piperidyl]pyrimidin-2-amine] | 740 |
| Cc1ccc2c(NS(=O)(=O)CC(C)C)c(F)ccc2c1Oc1ncccc1-c1ccnc(N[C@H]2CCCNC2)n1 [Example 279, (S)—N-(2-Fluoro-6-methyl-5-((3-(2-(piperidin-3-ylamino)pyrimidin-4-yl)pyridin-2-yl)oxy)naphthalen-1-yl)-2-methylpropane-1-sulfonamide] | 24.7 |
| COCCCS(=O)(=O)Nc1cccc2c(Oc3ncccc3-c3ccnc(N[C@H]4CCCNC4)n3)c(C)ccc12 [Example 132, (S)-3-Methoxy-N-(6-methyl-5-((3-(2-(piperidin-3-ylamino)pyrimidin-4-yl)pyridin-2-yl)oxy)naphthalen-1-yl)propane-1-sulfonamide hydrochloride] | 365 |
| Cc1ccc2c(NS(=O)(=O)N(C)C)c(F)ccc2c1Oc1ncccc1-c1ccnc(N[C@@H]2CNC[C@H](C)C2)n1 [Example 325, 4-[2-[[5-(Dimethylsulfamoylamino)-6-fluoro-2-methyl-1-naphthyl]oxy]-3-pyridyl]-2-[[(3S,5R)-5-methyl-3-piperidyl]amino]pyrimidine] | 35 |
| CCN(C)S(=O)(=O)Nc1cccc2c(Oc3ncccc3-c3ccnc(N[C@H]4CCCNC4)n3)c(C)ccc12 [Example 113, 4-[2-[[5-[[Ethyl(methyl)sulfamoyl]amino]-2-methyl-1-naphthyl]oxy]-3-pyridyl]-2-[[(3S)-3-piperidyl]amino]pyrimidine hydrochloride] | 343 |
| CCCS(=O)(=O)Nc1c(C)ccc2c(Oc3ncccc3-c3ccnc(N[C@H]4CCCNC4)n3)c(C)ccc12 [Example 285, (S)—N-(2,6-Dimethyl-5-((3-(2-(piperidin-3-ylamino)pyrimidin-4-yl)pyridin-2-yl)oxy)Naphthalen-1-yl)propane-1-sulfonamide] | 71 |
| Cc1ccc2c(NC(=O)[C@@H]3CCC(F)(F)C3)cccc2c1Oc1ncccc1-c1ccnc(N[C@H]2CCCNC2)n1 (single isomer, unassigned) [Example 269] | 336 |
| Cc1ccc2c(NC[C@@H](O)CF)cccc2c1Oc1ncccc1-c1ccnc(N[C@H]2CCCNC2)n1 (single isomer, unassigned) [Example 334] | 89.7 |
| Cc1nc(CNc2c(F)ccc3c(Oc4ncccc4-c4ccnc(N[C@@H]5CNC[C@H](C)C5)n4)c(C)ccc23)cs1 [Example 307, 4-(2-((6-Fluoro-2-methyl-5-(((2-methylthiazol-4-yl)methyl)amino)naphthalen-1-yl)oxy)pyridin-3-yl)-N-((3S,5R)-5-methylpiperidin-3-yl)pyrimidin-2-amine] | 360 |
| CCCS(=O)(=O)Nc1cccc2c(Oc3ncc(C)cc3-c3ccnc(N[C@H]4CCCNC4)n3)c(C)ccc12 [Example 240, (S)—N-(6-Methyl-5-((5-methyl-3-(2-(piperidin-3-ylamino)pyrimidin-4-yl)pyridin-2-yl)oxy)naphthalen-1-yl)propane-1-sulfonamide] | 167 |
| Cc1ccc2c(NC(=O)[C@@H]3CC34CCC4)c(F)ccc2c1Oc1ncccc1-c1ccnc(N[C@H]2CCCNC2)n1 (single isomer, unassigned) [Example 387] | 28.3 |
| CCCS(=O)(=O)Nc1cccc2c(Oc3ncccc3-c3ccnc(N[C@H]4CC[C@H](C)NC4)n3)c(C)ccc12 (single isomer, unassigned) [Example 196] | 162 |
| Cc1ccc2c(NC(=O)C3CC3)c(F)ccc2c1Oc1ncccc1-c1ccnc(N[C@@H]2CNC[C@H](C)C2)n1 [Example 310, N-(2-Fluoro-6-methyl-5-((3-(2-(((3S,5R)-5-methylpiperidin-3-yl)amino)pyrimidin-4-yl)pyridin-2-yl)oxy)naphthalen-1-yl)cyclopropanecarboxamide] | 135 |
| Cc1ccc2c(N3CCCC(C)C3=O)cccc2c1Oc1ncccc1-c1ccnc(N[C@H]2CCCNC2)n1 (mixture of isomers) [Example 354, 3-Methyl-1-(6-methyl-5-((3-(2-((S)-piperidin-3-ylamino)pyrimidin-4-yl)pyridin-2-yl)oxy)naphthalen-1-yl)piperidin-2-one] | 318 |
| CCOC(=O)Nc1cccc2c(Oc3ncccc3-c3ccnc(N[C@H]4CCCNC4)n3)c(C)ccc12 [Example 153, (S)-Ethyl (6-methyl-5-((3-(2-(piperidin-3-ylamino)pyrimidin-4-yl)pyridin-2-yl)oxy)naphthalen-1-yl)carbamate] | 143 |
| Cc1ccc2c(N3CCCC3=O)c(F)ccc2c1Oc1ncccc1-c1ccnc(N[C@H]2CCCNC2)n1 [Example 335, (S)-1-(2-Fluoro-6-methyl-5-((3-(2-(piperidin-3-ylamino)pyrimidin-4-yl)pyridin-2-yl)oxy)naphthalen-1-yl)pyrrolidin-2-one] | 384 |
| Cc1ccc2c(NC(=O)C3(C)CC3)cccc2c1Oc1ncccc1-c1ccnc(N[C@H]2CCCNC2)n1 [Example 154, (S)-1-Methyl-N-(6-methyl-5-((3-(2-(piperidin-3-ylamino)pyrimidin-4-yl)pyridin-2-yl)oxy)naphthalen-1-yl)cyclopropane-1-carboxamide] | 239 |
| CCC(C)S(=O)(=O)Nc1cccc2c(Oc3ncccc3-c3ccnc(N[C@H]4CCCNC4)n3)c(C)ccc12 (mixture of isomers) [Example 134, N-(6-Methyl-5-((3-(2-((S)-piperidin-3-ylamino)pyrimidin-4-yl)pyridin-2-yl)oxy)naphthalen-1-yl) butane-2-sulfonamide] | 260 |
| Cc1ccc2c(NS(=O)(=O)Cc3ccccc3Cl)cccc2c1Oc1ncccc1-c1ccnc(N[C@H]2CCCNC2)n1 [Example 135, (S)-1-(2-Chlorophenyl)-N-(6-methyl-5-((3-(2-(piperidin-3-ylamino)pyrimidin-4-yl)pyridin-2-yl)oxy)naphthalen-1-yl)methanesulfonamide] | 10 |

same assay, conditions: Table 2; read-out: XBP1s-luc 293 LUC (IC50)

| Compound | IC50 [nM] |
| --- | --- |
| Cc1ccc2c(NC[C@H](O)C3CC3)cccc2c1Oc1ncccc1-c1ccnc(N[C@H]2CCCNC2)n1 (single isomer, unassigned) [Example 489, hydrochloride] | 132 |
| Cc1ccc2c(NC(=O)C[C@@H](O)C(F)(F)F)cccc2c1Oc1ncccc1-c1ccnc(N[C@H]2CCCNC2)n1 (single isomer, unassigned) [Example 436] | 75 |
| Cc1ccc2c(NS(=O)(=O)Cc3ccccc3C#N)c(F)ccc2c1Oc1ncccc1-c1ccnc(N[C@H]2CCCNC2)n1 [Example 434, (S)-1-(2-Cyanophenyl)-N-(2-fluoro-6-methyl-5-((3-(2-(piperidin-3-ylamino)pyrimidin-4-yl)pyridin-2-yl)oxy)naphthalen-1-yl)methanesulfonamide hydrochloride] | 6 |
| Cc1ccc2c(NCC(F)CF)cccc2c1Oc1ncccc1-c1ccnc(N[C@H]2CCCNC2)n1 (mixture of isomers) [Example 460, 4-[2-[[5-(2,3-Difluoropropylamino)-2-methyl-1-naphthyl]oxy]-3-pyridyl]-N-[(3S)-3-piperidyl]pyrimidin-2-amine hydrochloride] | 92 |
| Cc1ccc2c(NS(=O)(=O)CC3(F)CC3)c(F)ccc2c1Oc1ncccc1-c1ccnc(N[C@@H]2CNC[C@H](C)C2)n1 [Example 487, N-(2-Fluoro-6-methyl-5-((3-(2-(((3S,5R)-5-methylpiperidin-3-yl)amino)pyrimidin-4-yl)pyridin-2-yl)oxy)naphthalen-1-yl)-1-(1-fluorocyclopropyl)methanesulfonamide hydrochloride] | 9 |
| Cc1ccc2c(NC[C@H](O)C(F)(F)F)cccc2c1Oc1ncccc1-c1ccnc(N[C@@H]2CNC[C@@H](F)C2)n1 (single isomer, unassigned) [Example 469, hydrochloride] | 5 |
